Source: patent publication US10131652B2, “Pyrimidinyloxy benzene derivatives as herbicides” (E. I. DU PONT DE NEMOURS AND COMPANY, priority 2014, dated 2018)

Assays:
Assay type in all cases: in vivo
[1] = tested on: rice (Oryza sativa); assay: Test C flooded paddy test plant response; conditions: Flood, 250 g ai/ha; scale of 0 to 100 where 0 is no effect and 100 is complete control; 13 to 15 days
Outline: (§1)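 Scored visually on a 0–100 scale (100 = complete control) against untreated plants 13 to 15 days after treatment in the greenhouse. Compounds went into paddy water of pots flooded to 3 cm, holding 2-leaf-stage plants.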

[2] = tested on: barnyardgrass (Echinochloa crus-galli); assay: Test C flooded paddy test plant response; conditions: Flood, 250 g ai/ha; scale of 0 to 100 where 0 is no effect and 100 is complete control; 13 to 15 days
Outline: as §1

[3] = tested on: small-flower umbrella sedge (Cyperus difformis); assay: Test C flooded paddy test plant response; conditions: Flood, 250 g ai/ha; scale of 0 to 100 where 0 is no effect and 100 is complete control; 13 to 15 days
Outline: as §1

[4] = tested on: ducksalad (Heteranthera limosa); assay: Test C flooded paddy test plant response; conditions: Flood, 250 g ai/ha; scale of 0 to 100 where 0 is no effect and 100 is complete control; 13 to 15 days
Outline: as §1

[5] = tested on: morningglory (Ipomoea spp.); assay: Test B pre-/postemergence plant response
Outline: (§2)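 Steps: plant seeds in loam soil–sand mix; spray soil preemergence, and in parallel spray 2–10 cm one- to two-leaf plants postemergence; hold ~10 days in greenhouse; visually rate injury against untreated controls (0 = no effect, 100 = complete control).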

[6] = tested on: velvetleaf (Abutilon theophrasti); assay: Test B pre-/postemergence plant response
Outline: as §2

[7] = tested on: barnyardgrass (Echinochloa crus-galli); assay: Test B pre-/postemergence plant response
Outline: as §2

[8] = tested on: giant foxtail (Setaria faberii); assay: Test B pre-/postemergence plant response
Outline: as §2

[9] = tested on: wheat (Triticum aestivum); assay: Test B pre-/postemergence plant response
Outline: as §2

[10] = tested on: pigweed (Amaranthus retroflexus); assay: Test B pre-/postemergence plant response
Outline: as §2

[11] = tested on: corn (Zea mays); assay: Test B pre-/postemergence plant response
Outline: as §2

[12] = tested on: large (Lg) crabgrass (Digitaria sanguinalis); assay: Test B pre-/postemergence plant response
Outline: as §2

[13] = 125 g ai/ha, postemergence, 0 to 100 scale, 0 no effect, 100 complete control
[14] = Postemergence, 500 g ai/ha, 0 to 100 scale (0 no effect, 100 complete control)
[15] = Preemergence, 125 g ai/ha, 0 to 100 scale (0 no effect, 100 complete control)
[16] = Preemergence, 500 g ai/ha, 0 to 100 scale where 0 is no effect and 100 is complete control
[17] = 500 g ai/ha, postemergence, 0 to 100 scale, 0 no effect, 100 complete control

Compound | Rice plant response rating [1] | Barnyardgrass plant response rating [2] | Sedge, Umbrella plant response rating [3] | Ducksalad plant response rating [4] | Plant response rating, Morningglory [5, 13] | Morningglory plant response rating [5, 15] | Plant response rating, Morningglory [5, 16] | Plant response rating, Velvetleaf [6, 13] | Velvetleaf plant response rating [6, 15] | Plant response rating, Velvetleaf [6, 16] | Plant response rating, Barnyardgrass [7, 13] | Barnyardgrass plant response rating [7, 15] | Plant response rating, Barnyardgrass [7, 16] | Plant response rating, Foxtail, Giant [8, 13] | Foxtail, Giant plant response rating [8, 15] | Plant response rating, Foxtail, Giant [8, 16] | Plant response rating, Wheat [9, 13] | Wheat plant response rating [9, 15] | Plant response rating, Wheat [9, 16] | Plant response rating, Pigweed [10, 13] | also measured
Clc1cnc(Oc2ccccc2-c2nccs2)nc1 [Compound 199] | 0 | 0 | 80 | 0 | 0 | 0 | 0 | 0 | 0 | 10 | 0 | 0 | 0 | 0 | 0 | 0 | 0 | 0 | 0 | 10 | Plant response rating, Morningglory [5, 14]: 10; Plant response rating, Velvetleaf [6, 14]: 10; Plant response rating, Barnyardgrass [7, 14]: 0; Plant response rating, Foxtail, Giant [8, 14]: 0; Plant response rating, Wheat [9, 14]: 0; Plant response rating, Pigweed [10, 14]: 30; Pigweed plant response rating [10, 15]: 0; Plant response rating, Pigweed [10, 16]: 30; Plant response rating, Corn [11, 13]: 0; Plant response rating, Corn [11, 14]: 0; Corn plant response rating [11, 15]: 0; Plant response rating, Corn [11, 16]: 0; Plant response rating, Crabgrass, Large [12, 13]: 0; Plant response rating, Crabgrass, Large [12, 14]: 10; Crabgrass, Large plant response rating [12, 15]: 0; Plant response rating, Crabgrass, Large [12, 16]: 10
O=[N+]([O-])c1cc(Cl)cnc1-c1ccccc1Oc1ncc(Cl)cn1 [Compound 201] | 0 | 0 | 0 | 0 | 0 | 0 | 0 | 0 | 0 | 0 | 0 | 0 | 0 | 0 | 0 | 0 | 0 | 0 | 0 | 0 | Plant response rating, Morningglory [5, 17]: 0; Plant response rating, Velvetleaf [6, 17]: 0; Plant response rating, Barnyardgrass [7, 17]: 0; Plant response rating, Foxtail, Giant [8, 17]: 0; Plant response rating, Wheat [9, 17]: 0; Plant response rating, Pigweed [10, 17]: 0; Pigweed plant response rating [10, 15]: 0; Plant response rating, Pigweed [10, 16]: 0; Plant response rating, Corn [11, 13]: 0; Plant response rating, Corn [11, 17]: 0; Corn plant response rating [11, 15]: 0; Plant response rating, Corn [11, 16]: 0; Plant response rating, Crabgrass, Large [12, 13]: 0; Plant response rating, Crabgrass, Large [12, 17]: 0; Crabgrass, Large plant response rating [12, 15]: 0; Plant response rating, Crabgrass, Large [12, 16]: 0
N#Cc1cccc(Oc2ncc(Cl)cn2)c1-c1ccc(Cl)cn1 [Compound 202] | 0 | 0 | 80 | 80 | 10 | 0 | 20 | 10 | 0 | 60 | 10 | 10 | 80 | 30 | 70 | 100 | 0 | 0 | 20 | 90 | Plant response rating, Morningglory [5, 17]: 40; Plant response rating, Velvetleaf [6, 17]: 30; Plant response rating, Barnyardgrass [7, 17]: 40; Plant response rating, Foxtail, Giant [8, 17]: 80; Plant response rating, Wheat [9, 17]: 0; Plant response rating, Pigweed [10, 17]: 100; Pigweed plant response rating [10, 15]: 100; Plant response rating, Pigweed [10, 16]: 100; Plant response rating, Corn [11, 13]: 0; Plant response rating, Corn [11, 17]: 30; Corn plant response rating [11, 15]: 0; Plant response rating, Corn [11, 16]: 0; Plant response rating, Crabgrass, Large [12, 13]: 10; Plant response rating, Crabgrass, Large [12, 17]: 70; Crabgrass, Large plant response rating [12, 15]: 90; Plant response rating, Crabgrass, Large [12, 16]: 100
